According to patent US20250041312A1, “METHODS OF ADMINISTERING A MODULATOR OF HEMOGLOBIN” (Global Blood Therapeutics, Inc., priority 2021, published 2025):
Where two headings read alike, the source gives them in different places.

Assay: SAD study in healthy volunteers: PK in plasma, whole blood, red blood cells
Assay type: in vivo, human
Settings: for Cmax / AUC(0-t) / half-life / Kp / blood plasma ratio: human; for Kp: red blood cells and plasma; for Kp / blood plasma ratio: HV, dose range of 50 to 2200 mg; for blood plasma ratio: whole blood and plasma
Description: To evaluate the safety and tolerability of single ascending doses of Compound I, 48 healthy volunteers (42 in the fasted state and 6 in the fed state) aged 18 to 55 years old were administered single ascending doses (50 mg to 2200 mg) of Compound I, while 16 healthy volunteers (14 in the fasted state and 2 in the fed state) aged 18 to 55 years old were administered placebo in a double blind, randomized, sequential manner.
Whole blood pharmacokinetic (PK) parameters, using actual sample collection times, and hemoglobin occupancy after single ascending dose are shown in Table 5 (containing data from both healthy volunteers and SCD subjects) and Table 6 (containing data from only healthy volunteer subjects).

B:P ratio (mean AUC0-t blood:mean AUC0-t plasma) (HV single 50 mg): 220
B:P ratio (mean AUC0-t blood:mean AUC0-t plasma) (HV single 100 mg): 214
B:P ratio (mean AUC0-t blood:mean AUC0-t plasma) (HV single 200 mg): 206
B:P ratio (mean AUC0-t blood:mean AUC0-t plasma) (HV single 400 mg): 185
B:P ratio AUC0-inf (healthy subjects n=6, single 100 mg): 216
Cmax (plasma, 100 mg, healthy volunteers n=6, single 100 mg, geometric mean): 714 ng/mL
AUC(0-t) (plasma, 100 mg, healthy volunteers n=6, single 100 mg, plasma, geometric mean, read-out: AUC0-t): 68.7 µg·h/mL
half-life (plasma, 100 mg, healthy volunteers n=6, single 100 mg, plasma, geometric mean, read-out: t½ (converted)): 25.6 days
Cmax (plasma, po, 50 mg, HV single oral 50 mg (Cohort 1), geometric mean): 400 ng/mL
AUC(0-t) (plasma, po, 50 mg, HV single oral 50 mg (Cohort 1), plasma, geometric mean, read-out: AUClast): 31.1 µg·h/mL
half-life (plasma, po, 50 mg, HV single oral 50 mg (Cohort 1), plasma, geometric mean, read-out: t1/2 (converted)): 28.7 days
Cmax (plasma, po, 100 mg, HV single oral 100 mg (Cohort 2), geometric mean): 714 ng/mL
AUC(0-t) (plasma, po, 100 mg, HV single oral 100 mg (Cohort 2), plasma, geometric mean, read-out: AUClast): 68.7 µg·h/mL
half-life (plasma, po, 100 mg, HV single oral 100 mg (Cohort 2), plasma, geometric mean, read-out: t1/2 (converted)): 25.6 days
Cmax (plasma, po, 200 mg, HV single oral 200 mg (Cohort 3), geometric mean): 1290 ng/mL
AUC(0-t) (plasma, po, 200 mg, HV single oral 200 mg (Cohort 3), plasma, geometric mean, read-out: AUClast): 135 µg·h/mL
half-life (plasma, po, 200 mg, HV single oral 200 mg (Cohort 3), plasma, geometric mean, read-out: t1/2 (converted)): 30.8 days
Cmax (plasma, po, 400 mg, HV single oral 400 mg (Cohort 5), geometric mean): 3190 ng/mL
AUC(0-t) (plasma, po, 400 mg, HV single oral 400 mg (Cohort 5), plasma, geometric mean, read-out: AUClast): 331 µg·h/mL
half-life (plasma, po, 400 mg, HV single oral 400 mg (Cohort 5), plasma, geometric mean, read-out: t1/2 (converted)): 26 days
Cmax (plasma, po, 800 mg, HV single oral 800 mg (Cohort 6), geometric mean): 4250 ng/mL
AUC(0-t) (plasma, po, 800 mg, HV single oral 800 mg (Cohort 6), plasma, geometric mean, read-out: AUClast): 609 µg·h/mL
half-life (plasma, po, 800 mg, HV single oral 800 mg (Cohort 6), plasma, geometric mean, read-out: t1/2 (converted)): 20.7 days
Cmax (plasma, po, 1400 mg, HV single oral 1400 mg (Cohort 7), geometric mean): 7780 ng/mL
AUC(0-t) (plasma, po, 1400 mg, HV single oral 1400 mg (Cohort 7), plasma, geometric mean, read-out: AUClast): 1030 µg·h/mL
half-life (plasma, po, 1400 mg, HV single oral 1400 mg (Cohort 7), plasma, geometric mean, read-out: t1/2 (converted)): 21.4 days
Cmax (plasma, po, 2200 mg, HV single oral 2200 mg (Cohort 8), geometric mean): 9300 ng/mL
AUC(0-t) (plasma, po, 2200 mg, HV single oral 2200 mg (Cohort 8), plasma, geometric mean, read-out: AUClast): 1360 µg·h/mL
half-life (plasma, po, 2200 mg, HV single oral 2200 mg (Cohort 8), plasma, geometric mean, read-out: t1/2 (converted)): 22.1 days
Kp (read-out: mean RBC to plasma ratio for AUCinf): 420 to 530
Kp (read-out: mean RBC to plasma ratio for Cmax): 49 to 99
AUC(0-t) (red blood cells, po, 50 mg, HV single oral 50 mg (Cohort 1), red blood cells (calculated conc.), geometric mean, read-out: AUClast): 16500 µg·h/mL
half-life (red blood cells, po, 50 mg, HV single oral 50 mg (Cohort 1), red blood cells (calculated conc.), geometric mean, read-out: t1/2 (converted)): 28.3 days
Cmax (red blood cells, po, 50 mg, HV single oral 50 mg (Cohort 1), red blood cells (conc. calculated from blood, plasma, hematocrit), geometric mean): 19300 ng/mL
Cmax (red blood cells, po, 100 mg, HV single oral 100 mg (Cohort 2), red blood cells (calculated conc.), geometric mean): 41700 ng/mL
AUC(0-t) (red blood cells, po, 100 mg, HV single oral 100 mg (Cohort 2), red blood cells (calculated conc.), geometric mean, read-out: AUClast): 34500 µg·h/mL
half-life (red blood cells, po, 100 mg, HV single oral 100 mg (Cohort 2), red blood cells (calculated conc.), geometric mean, read-out: t1/2 (converted)): 29 days
Cmax (red blood cells, po, 200 mg, HV single oral 200 mg (Cohort 3), red blood cells (calculated conc.), geometric mean): 76900 ng/mL
AUC(0-t) (red blood cells, po, 200 mg, HV single oral 200 mg (Cohort 3), red blood cells (calculated conc.), geometric mean, read-out: AUClast): 64400 µg·h/mL
half-life (red blood cells, po, 200 mg, HV single oral 200 mg (Cohort 3), red blood cells (calculated conc.), geometric mean, read-out: t1/2 (converted)): 28.1 days
Cmax (red blood cells, po, 400 mg, HV single oral 400 mg (Cohort 5), red blood cells (calculated conc.), geometric mean): 210000 ng/mL
AUC(0-t) (red blood cells, po, 400 mg, HV single oral 400 mg (Cohort 5), red blood cells (calculated conc.), geometric mean, read-out: AUClast): 151000 µg·h/mL
half-life (red blood cells, po, 400 mg, HV single oral 400 mg (Cohort 5), red blood cells (calculated conc.), geometric mean, read-out: t1/2 (converted)): 25.2 days
Cmax (red blood cells, po, 800 mg, HV single oral 800 mg (Cohort 6), red blood cells (calculated conc.), geometric mean): 351000 ng/mL
AUC(0-t) (red blood cells, po, 800 mg, HV single oral 800 mg (Cohort 6), red blood cells (calculated conc.), geometric mean, read-out: AUClast): 247000 µg·h/mL
half-life (red blood cells, po, 800 mg, HV single oral 800 mg (Cohort 6), red blood cells (calculated conc.), geometric mean, read-out: t1/2 (converted)): 26 days
Cmax (red blood cells, po, 1400 mg, HV single oral 1400 mg (Cohort 7), red blood cells (calculated conc.), geometric mean): 543000 ng/mL
AUC(0-t) (red blood cells, po, 1400 mg, HV single oral 1400 mg (Cohort 7), red blood cells (calculated conc.), geometric mean, read-out: AUClast): 455000 µg·h/mL
half-life (red blood cells, po, 1400 mg, HV single oral 1400 mg (Cohort 7), red blood cells (calculated conc.), geometric mean, read-out: t1/2 (converted)): 27.4 days
Cmax (red blood cells, po, 2200 mg, HV single oral 2200 mg (Cohort 8), red blood cells (calculated conc.), geometric mean): 910000 ng/mL
AUC(0-t) (red blood cells, po, 2200 mg, HV single oral 2200 mg (Cohort 8), red blood cells (calculated conc.), geometric mean, read-out: AUClast): 626000 µg·h/mL
half-life (red blood cells, po, 2200 mg, HV single oral 2200 mg (Cohort 8), red blood cells (calculated conc.), geometric mean, read-out: t1/2 (converted)): 24.6 days
blood plasma ratio (read-out: mean blood to plasma ratio for AUCinf): 177 to 219
blood plasma ratio (read-out: mean blood to plasma ratio for Cmax): 20 to 42
Cmax (whole blood, 50 mg, HV single 50 mg, mean): 8100 ng/mL
AUC(0-t) (whole blood, 50 mg, HV single 50 mg, whole blood, mean, read-out: AUC0-t): 6900 µg·h/mL
half-life (whole blood, 50 mg, HV single 50 mg, whole blood, mean, read-out: t1/2 (converted)): 28.9 days
Cmax (whole blood, 100 mg, HV single 100 mg, mean): 17400 ng/mL
AUC(0-t) (whole blood, 100 mg, HV single 100 mg, whole blood, mean, read-out: AUC0-t): 14400 µg·h/mL
half-life (whole blood, 100 mg, HV single 100 mg, whole blood, mean, read-out: t1/2 (converted)): 29.8 days
Cmax (whole blood, 100 mg, healthy subjects n=6, single 100 mg, blood, geometric mean): 17300 ng/mL
AUC(0-t) (whole blood, 100 mg, healthy subjects n=6, single 100 mg, blood, geometric mean, read-out: AUC0-t): 14300 µg·h/mL
half-life (whole blood, 100 mg, healthy subjects n=6, single 100 mg, blood, geometric mean, read-out: t½ (converted)): 29.1 days
Cmax (whole blood, 200 mg, HV single 200 mg, mean): 35800 ng/mL
AUC(0-t) (whole blood, 200 mg, HV single 200 mg, whole blood, mean, read-out: AUC0-t): 29300 µg·h/mL
half-life (whole blood, 200 mg, HV single 200 mg, whole blood, mean, read-out: t1/2 (converted)): 28.4 days
Cmax (whole blood, 400 mg, HV single 400 mg, mean): 88100 ng/mL
AUC(0-t) (whole blood, 400 mg, HV single 400 mg, whole blood, mean, read-out: AUC0-t): 61900 µg·h/mL
half-life (whole blood, 400 mg, HV single 400 mg, whole blood, mean, read-out: t1/2 (converted)): 25.8 days
Cmax (whole blood, 800 mg, HV single 800 mg, mean): 149000 ng/mL
AUC(0-t) (whole blood, 800 mg, HV single 800 mg, whole blood, mean, blood collected up to day 42, read-out: AUC0-t): 74300 µg·h/mL
Cmax (whole blood, 1400 mg, HV single 1400 mg, mean): 231000 ng/mL
AUC(0-t) (whole blood, 1400 mg, HV single 1400 mg, whole blood, mean, blood collected up to day 42, read-out: AUC0-t): 137000 µg·h/mL
Compound: O=Cc1c(O)cccc1OC[C@@H]1COCCN1C(=O)c1cccnc1CCO [Compound I, (S)-2-hydroxy-6-((4-(2-(2-hydroxyethyl)nicotinoyl)morpholin-3-yl)methoxy)benzaldehyde]
